Structures can show the parent of a compound that is named as a salt.
Legend:
natural onset dermatitis = test: Natural onset dermatitis (NC/Nga) mice; assay type: in vivo; details: 150 mg/kg/day in drinking water, 35 days
Description: NC/Nga mice were bred and raised in accordance with the methods described in previous reports (Progress in Medicine 19, 1201, 1999). Specifically, 5-week old NC/Nga mice obtained from Charles River Japan and raised under a specific pathogen free (SPF) environment were mixed with NC/Nga mice bred by the Faculty of Applied Biological Science of Hiroshima University starting from 6 weeks of age, kept until 15 weeks of age in a normal non-SPF environment, then used for the tests. The tests were conducted under non-SPF, conventional environment. The test substance (Compound 18) was mixed with the drinking water and administered for 35 consecutive days at 150 mg/kg/day (n=7), then an evaluation was conducted in accordance with the method described in previous reports (Progress in Medicine 19, 1201, 1999). That is, first, 35 days after the start of administration, the five items of (1) scratching behavior, (2) edema, (3) erythema and hemorrhaging, (4) depilation and ulceration, and (5) dryness were scored as 0 to 2 and the total found to judge the outer appearance of the skin. Next, the ears and skin of the back were fixed with formalin, embedded in paraffin, and histologically analyzed by staining the ear specimens by the hematoxylin and Eosin method, Toluidine Blue method, or Congo Red method (Stain Technol. 56, 323, 1981) and by staining the back skin specimens by the Toluidine Blue method or Congo Red method. Sections of the ear stained with Hematoxylin and Eosin were evaluated by judging the change in tissue in four scales of 0 to 3 for three items of (1) thickness of epidermis, (2) thickness of dermis, and (3) cellular infiltration and expressing as the total score. Further, the specimens stained with Toluidine Blue and stained with Congo Red were used for counting the mast cells and eosinophils. Specifically, the eosinophils of the back skin were counted in a ×400 field of a microscope, while the other cells were counted in a total of five ×200 fields and the totals expressed.

mast cells of skin = test: Increase in number of mast cells of skin in hapten-induced mouse dermatitis model; assay type: in vivo, C3H/HeN mice; details: 48 hours after sixth application of hapten
Protocol: The effect of a chymase inhibitor on the increase in mast cells of skin in the test of Example 10 was studied. In the same way as Example 11, the ears of the mice were fixed with formalin and paraffin sections prepared by an ordinary method 48 hours after the sixth application of hapten. The mast cells of the sections were stained by the Toluidine Blue method, then the number of mast cells were counted under a microscope (×400) for 10 fields per section. The density of mast cells of the skin was measured in accordance with the method of Kitagaki et al. (J. Invest. Dermatol. 105, 749, 1995). As the chymase inhibitor, use was made of Compound 18 and Compound 34. These were administered by the method described in Example 10. Further, a group treated with an acetone/olive oil solution (3:1) not containing DNFB was used as the non-induced control group, while a group treated with DNFB and administered HPC/saline instead of the test substance was used as the control for the group administered the chymase inhibitor.

[1] = system: dermatitis induced by repeated application of hapten; test: Mouse dermatitis model induced by repeated application of hapten (DNFB), ear thickness; assay type: in vivo, C3H/HeN mice; details: for suppression of increase in ear thickness (skin reaction after hapten application): five days a week
Protocol: Dermatitis was induced in accordance with an already reported method (J. Pharmacol. Exp. Ther. 283, 321, 1997) using dinitrofluorobenzene (DNFB) as hapten. That is, the right ears of eight-week old female C3H/HeN mice (Nippon Clare) (n=7) were painted with 0.15% DNFB (25 μl) dissolved in an acetone/olive oil (3:1) every seven days six times. When applying the hapten each time, the ear thickness was measured by a micrometer (Digimatic Indicator, Mitsutoyo Co.) immediately before the application and 1 hour, 6 hours, 24 hours, and 48 hours after the application so as to find the amount of increase from the ear thickness before the first application of hapten. Further, a group similarly treated with an acetone/olive oil solution (3:1) not containing DNFB was used as a control. Further, in a test separate from the above, the ears were cut off immediately before the third application of hapten, the chymase-like activity of the skin was measured in accordance with an already reported method (n=3), and this was compared with the activity of mice treated with an acetone/olive oil solution (3:1) not containing DNFB (n=2).
The effect of a test substance on dermatitis was investigated by inducing dermatitis in accordance with the method described in Example 9 (n=7) and measuring the ear thickness in the same way as in Example 9. As the test substance, three chymase inhibitors (Compound 18, Compound 34, and Compound 35) were used, while as the control, the steroid prednisolone (Nakarai Tesc Inc.) was used. Further, the test substance was suspended in saline containing 0.5% hydroxypropyl cellulose in the same way as in Example 3 (HPC/saline) and intraperitoneally administered in dosages of 10 mg/kg or 50 mg/kg once a day for five consecutive days a week until the end of the test; the first administration was performed immediately before the start of the hapten application. Further, a group similarly treated with DNFB and administered HPC/saline instead of the test substance was used as a control group.

[2] = system: human polymorphonuclear leukocytes (PMN); test: Human chymase-induced migration of polymorphonuclear leukocytes, 48-well chemotaxis chamber; assay type: cell-based; details: inhibitor in lower well, 1% dimethyl sulfoxide, 37° C. 1 hour
Protocol: In Example 6, it was shown that a remarkable infiltration of leukocytes is observed in late-phase reaction of human chymase-induced dermatitis. The effect of human chymase on the migration of polymorphonuclear leukocytes (PMN) in vitro was investigated for the purpose of investigating the mechanism of chymase-induced leukocyte infiltration. PMN was isolated by adding a ⅕th volume of 6% dextran solution to heparinized whole blood from normal healthy subject and allowing it to stand at 37° C. for 1 hour, then layering the supernatent on Ficoll-Paque (Amersham Pharmacia Biotech) and centrifuging it. Further, the migration of PMN was measured by using a 48-well chemotaxis chamber (NeuroProbe Co.) by the textbook method (Seibutsu Yakkagaku Jikken Koza (Biopharmacology Experiment Lectures) 12, 315, Hirokawa Shoten). That is, a medium containing human chymase (200 to 800 nM) or fMLP (N-formyl-L-methionyl-L-leucyl-L-phenylalanine, Sigma-Aldrich Co.) (10 nM) was placed in the lower well of the chamber. The upper well and the lower well were separated by a polycarbonate filter (pore size 5 μm) (NeuroProbe Co.) PMN (1×10^6/ml) was added to the upper well and cultured at 37° C. for 1 hour, then the filter was fixed, stained and the number of cells in the membrane were counted under a microscope (400×) (Seibutsu Yakkagaku Jikken Koza (Biopharmacology Experiment Lectures) 12, 315). For the cell staining, a hemacolor solution (Merck) was used. In this test, when investigating the effect of the chymase inhibitor, a chymase inhibitor (Compound 18 or Compound 34) was dissolved in dimethyl sulfoxide and added to the lower well of the chamber just before the addition of the human chymase. The concentration of the compound was adjusted so that the final concentration of the dimethyl sulfoxide became 1%.

eosinophils of the skin = test: Increase in eosinophils of skin in hapten-induced mouse dermatitis model; assay type: in vivo, C3H/HeN mice; details: 48 hours after sixth application of hapten
Protocol: The effect of a chymase inhibitor on the infiltration of eosinophils of the skin in the test of Example 10 was studied. That is, 48 hours after the sixth application of hapten, the ears of the mice were fixed with formalin and paraffin sections prepared in accordance with an ordinary method. The sections were stained with Fast Green (Fluka), known to specifically stain eosinophils (Current Protocol in Immunology, Wiley Interscience). That is, the deparaffined sections were fixed with 100% methanol for 1 minute, then stained for 30 minutes by 0.2% Fast Green dissolved in 70% ethanol. The eosinophils were measured by randomly selecting 10 fields (×400) under a microscope and counting the number of cells per area using an ocular grid. As the chymase inhibitor, the Compound 18 and Compound 34 were used and =administered by the method described in Example 10. Further, a group treated with an acetone/olive oil solution (3:1) not containing DNFB was used as the non-induced control group, while a group treated with DNFB and administered HPC/saline instead of the test substance was used as the control for the group administered the chymase inhibitor.

[3] = system: Ascaris-induced mouse biphasic dermatitis; test: Ascaris-induced mouse biphasic dermatitis model, ear edema; assay type: in vivo, BALB/c mice
Protocol: Ascaris-induced biphasic dermatitis was induced according to the method described previously (Folia Pharmacol. Jap. 112, 221, 1998). That is, 8-week old BALB/c mice (Charles River Japan) were sensitized by intraperitoneal injection of 0.5 ml of a 1:1 mixture of ascaris extract (800 μg/ml, Cosmo Bio Co., Ltd.) and an alum saline suspension (16 mg/ml in saline). Two weeks after the sensitization, 10 μl of ascaris extract (1 mg/ml) was injected intradermally to the right ear of mice. The edema induced at the ear were evaluated immediately before intradermal injection of the ascaris extract (n=3) and 1 hour after (n=4), 2 hours after (n=4), 4 hours after (n=4), 6 hours after (n=4), 16 hours after (n=4), and 24 hours after injection (n=4), by weighing ear biopsy prepared with a punch (a diameter of 6 mm, Fukui Kiko Shokai) and measuring their weights. The edema (mg) was expressed as the difference in the weight of the ear punch biopsy between the right and the left ears of the same mouse. Dermatitis was induced in accordance with the method described in Example 2 and the ear edema was measured in the same way as in Example 2, 1 hour (n=6) and 16 hours (n=8) after the intradermal administration of ascaris extract to the ears to investigate the effects of the test substance on dermatitis. As the chymase inhibitor, Compound 34 was used. As the control drug, diphenhydrazine (antihistamine, Sigma) and prednisolone (steroid, Nakarai Tesc Co.) were used. Each drug under study was suspended in saline containing 0.5% hydroxypropyl cellulose and administered intraperiotoneally 60 minutes before intradermal administration of ascaris extract. A group of mice sensitized with ascaris extract and challenged by intradermal injection of saline was used as a control (n=3).

[4] = 10 mg/kg intraperitoneal once a day
[5] = 50 mg/kg intraperitoneal once a day, p<0.05 Dunnett's test
[6] = 50 mg/kg intraperitoneal, 60 minutes before ascaris extract, p<0.01

For `Nc1cc(S(=O)(=O)n2c(=O)[nH]c3cc(Cl)ccc3c2=O)ccc1C(=O)O` [Compound 18, 4-[(7-chloro-2.4 (1H,3H)-quinazolinedion-3-yl)sulfonyl]anthranilic Acid Monosodium Salt], the “number of mast cells of ear skin and back skin” value (natural onset dermatitis) was “significant suppressive effect”, the “numbers of eosinophils of ear skin and back skin” value (natural onset dermatitis) was “significantly suppressed” and the “histological score of the ears” value (natural onset dermatitis; p<0.05 Mann-Whitney) was “decreased significantly”. For the same compound, the “dermatitis score (clinical skin score)” value (natural onset dermatitis; vs control group, p<0.05 Mann-Whitney) was “decreased significantly”, the “rate of suppression of increase in density of mast cells” value (mast cells of skin; 10 mg/kg intraperitoneal) was “about 57%” and the “rate of suppression of increase in density of mast cells” value (mast cells of skin; 50 mg/kg intraperitoneal) was “about 64%”. For the same compound, the “suppression of increase in ear thickness (skin reaction after hapten application)” value (from here on “suppression of increase in ear thickness”) [1, 4] was “significant effect”, the “suppression of increase in ear thickness” value [1, 5] was “significantly suppressed” and the “suppression of human chymase-promoted migration of human PMN” value [2] was “significantly suppressed”. For the same compound, the “rate of suppression of increase in eosinophils” value (eosinophils of the skin; 10 mg/kg intraperitoneal) was 37.1% and the “rate of suppression of increase in eosinophils” value (eosinophils of the skin; 50 mg/kg intraperitoneal) was 60.5%.
In the case of `CS(=O)(=O)O.Nc1cccc(S(=O)(=O)n2c(=O)[nH]c3cc(Cl)ccc3c2=O)c1` [Compound 34, 3-(3-aminobenzenesulfonyl)-7-chloro-2,4-(1H,3H)quinazolinedion Methanesulfonic Acid Salt], the “rate of suppression of increase in density of mast cells” value (mast cells of skin; 10 mg/kg intraperitoneal) is reported as “about 37%”, the “rate of suppression of increase in density of mast cells” value (mast cells of skin; 50 mg/kg intraperitoneal) is reported as “about 51%” and the “rate of suppression, early-phase reaction (ear edema after 1 hour)” value [3, 6] is reported as “about 41%”. For the same compound, the “rate of suppression, late-phase reaction (ear edema after 16 hours)” value [3, 6] was “about 45%”, the “suppression of increase in ear thickness” value [1, 4] was “significant suppressive effect” and the “suppression of increase in ear thickness” value [1, 5] was “significantly suppressed”. For the same compound, the “suppression of human chymase-promoted migration of human PMN” value [2] was “significantly suppressed” and the “effect on increase in eosinophils” value (eosinophils of the skin; 10 and 50 mg/kg intraperitoneal) was “no statistically significant difference”.
`Cl.O=c1[nH]c2cc(Cl)ccc2c(=O)n1S(=O)(=O)c1ccc(-c2cc[nH]n2)cc1` [Compound 35, 7-chloro-3-[4-(pyrazol-3-yl)benzenesulfonyl]-2,4(1H,3H)-quinazolinedione Hydrochloride] was tested, and the “suppression of increase in ear thickness” value [1, 5] was “significantly suppressed”.
In the case of `C[C@]12C=CC(=O)C=C1CC[C@@H]1[C@@H]2[C@@H](O)C[C@@]2(C)[C@H]1CC[C@]2(O)C(=O)CO` [Prednisolone, prednisolone], the “rate of suppression, late-phase reaction” value ([3]; 30 mg/kg intraperitoneal, 16 hours after challenge) is reported as 67%, the “effect against the early-phase reaction” value ([3]; control drug, intraperitoneal, 1 hour after challenge) is reported as “substantially ineffective” and the “suppression of dermatitis (ear thickness)” value ([1]; control drug, 10 mg/kg or 50 mg/kg intraperitoneal) is reported as “suppressed dermatitis in this model in a dose-dependent manner”.
With `CN(C)CCOC(c1ccccc1)c1ccccc1` [diphenhydrazine] the “rate of suppression, early-phase reaction” value ([3]; control drug, intraperitoneal, dose not given, 1 hour after challenge) was 79% and the “effect against the late-phase reaction” value ([3]; control drug, intraperitoneal, dose not given, 16 hours after challenge) was “almost no effect”.

From patent publication US7618977B2, “Method of treating dermatitis comprising administering a chymase inhibitor” (Asubio Pharma Co., Ltd., priority 2000, dated 2009)
